From paper PMC10702058, “Phase I dose escalation study and pilot efficacy analysis of LXI-15029, a novel mTOR dual inhibitor, in Chinese subjects with advanced malignant solid tumors” (BMC Cancer, 2023)

Key:
[1] = system: advanced malignant solid tumors; assay: Investigator-assessed antitumor effect (RECIST 1.1: ORR, DCR, PFS)
Experimental: All safety, tolerance, PK, and antitumor data from each dose group were tabulated and summarized according to the statistical analysis plan. The statistical analysis of the study was descriptive. The continuous variables were described as mean ± standard deviation or median (minimum, maximum). […] The categorical variables were described as n (%). PFS was summarized using the Kaplan–Meier method. […] All data processing, summaries, and analyses were performed using SAS 9.4 (SAS Institute, Cary, NC, USA).

[2] = Phase I dose escalation: safety and tolerability (DLT, MTD, adverse events, NCI-CTCAE 4.03)

Question: What does the source list for CNC(=O)c1cccc(-c2ccc3c(N4C5CCC4COC5)nc(N4CCOC[C@@H]4C)nc3n2)c1 [LXI-15029]?
Answer: disease control rate (DCR) ([1]; 8/20 evaluable, 95% CI 21.7–60.6): 40%; complete or partial response (CR or PR) ([1]; 20 evaluable participants): No participants achieved CR or PR; median progression-free survival ([1]; evaluable patients, overall, from first dose): 29 days; relationship between Ctrough and median PFS or DCR ([1]; exposure-efficacy analysis): no relationship was found; DCR-dose correlation ([1]; in vivo): No DCR-dose correlation was observed; patients with stable disease ([1]; of 20 evaluable): Eight; duration of SD ([1]; one participant with fibrosarcoma, 20 mg BID): 344 days; median PFS ([1]; patients with breast cancer, 95% CI: 0.89–4.63): 0.95 months; median PFS ([1]; patients with sarcoma, 95% CI: 0.92–11.33): 0.97 months; Patients with any TEAE ([2]; 10 mg BID (n = 3)): 3 (100.0) n (%); Patients with any TEAE, maximum CTCAE Grade 1 ([2]; 10 mg BID (n = 3)): 3 (100.0) n (%); Patients with any TEAE, maximum CTCAE Grade 2 ([2]; 10 mg BID (n = 3)): 0 n (%); Patients with any TEAE, maximum CTCAE Grade 3 ([2]; 10 mg BID (n = 3)): 0 n (%); ≥ 10% TRAE: ALT increased ([2]; 10 mg BID (n = 3)): 0 n (%); ≥ 10% TRAE: AST increased ([2]; 10 mg BID (n = 3)): 0 n (%); ≥ 10% TRAE: Decreased appetite ([2]; 10 mg BID (n = 3)): 1 (33.3) n (%); ≥ 10% TRAE: Diarrhea ([2]; 10 mg BID (n = 3)): 0 n (%); ≥ 10% TRAE: ECG QT prolonged ([2]; 10 mg BID (n = 3)): 0 n (%); ≥ 10% TRAE: Fatigue ([2]; 10 mg BID (n = 3)): 0 n (%); ≥ 10% TRAE: GGT increased ([2]; 10 mg BID (n = 3)): 0 n (%); ≥ 10% TRAE: Hypercholesterolemia ([2]; 10 mg BID (n = 3)): 0 n (%); ≥ 10% TRAE: Hypertriglyceridemia ([2]; 10 mg BID (n = 3)): 0 n (%); ≥ 10% TRAE: LDL increased ([2]; 10 mg BID (n = 3)): 0 n (%); ≥ 10% TRAE: Leukocytopenia ([2]; 10 mg BID (n = 3)): 0 n (%); ≥ 10% TRAE: Neutropenia ([2]; 10 mg BID (n = 3)): 0 n (%); ≥ 10% TRAE: Sinus bradycardia ([2]; 10 mg BID (n = 3)): 0 n (%); Patients with any TEAE ([2]; 20 mg BID (n = 3)): 3 (100.0) n (%); Patients with any TEAE, maximum CTCAE Grade 1 ([2]; 20 mg BID (n = 3)): 2 (66.7) n (%); Patients with any TEAE, maximum CTCAE Grade 2 ([2]; 20 mg BID (n = 3)): 1 (33.3) n (%); Patients with any TEAE, maximum CTCAE Grade 3 ([2]; 20 mg BID (n = 3)): 0 n (%); ≥ 10% TRAE: ALT increased ([2]; 20 mg BID (n = 3)): 1 (33.3) n (%); ≥ 10% TRAE: AST increased ([2]; 20 mg BID (n = 3)): 0 n (%); ≥ 10% TRAE: Decreased appetite ([2]; 20 mg BID (n = 3)): 0 n (%); ≥ 10% TRAE: Diarrhea ([2]; 20 mg BID (n = 3)): 0 n (%); ≥ 10% TRAE: ECG QT prolonged ([2]; 20 mg BID (n = 3)): 0 n (%); ≥ 10% TRAE: Fatigue ([2]; 20 mg BID (n = 3)): 1 (33.3) n (%); ≥ 10% TRAE: GGT increased ([2]; 20 mg BID (n = 3)): 1 (33.3) n (%); ≥ 10% TRAE: Hypercholesterolemia ([2]; 20 mg BID (n = 3)): 0 n (%); ≥ 10% TRAE: Hypertriglyceridemia ([2]; 20 mg BID (n = 3)): 1 (33.3) n (%); ≥ 10% TRAE: LDL increased ([2]; 20 mg BID (n = 3)): 1 (33.3) n (%); ≥ 10% TRAE: Leukocytopenia ([2]; 20 mg BID (n = 3)): 1 (33.3) n (%); ≥ 10% TRAE: Neutropenia ([2]; 20 mg BID (n = 3)): 0 n (%); ≥ 10% TRAE: Sinus bradycardia ([2]; 20 mg BID (n = 3)): 1 (33.3) n (%); Patients with any TEAE ([2]; 40 mg BID (n = 3)): 2 (66.7) n (%); Patients with any TEAE, maximum CTCAE Grade 1 ([2]; 40 mg BID (n = 3)): 1 (33.3) n (%); Patients with any TEAE, maximum CTCAE Grade 2 ([2]; 40 mg BID (n = 3)): 1 (33.3) n (%); Patients with any TEAE, maximum CTCAE Grade 3 ([2]; 40 mg BID (n = 3)): 0 n (%); ≥ 10% TRAE: ALT increased ([2]; 40 mg BID (n = 3)): 0 n (%); ≥ 10% TRAE: AST increased ([2]; 40 mg BID (n = 3)): 0 n (%); ≥ 10% TRAE: Decreased appetite ([2]; 40 mg BID (n = 3)): 0 n (%); ≥ 10% TRAE: Diarrhea ([2]; 40 mg BID (n = 3)): 0 n (%); ≥ 10% TRAE: ECG QT prolonged ([2]; 40 mg BID (n = 3)): 0 n (%); ≥ 10% TRAE: Fatigue ([2]; 40 mg BID (n = 3)): 0 n (%); ≥ 10% TRAE: GGT increased ([2]; 40 mg BID (n = 3)): 0 n (%); ≥ 10% TRAE: Hypercholesterolemia ([2]; 40 mg BID (n = 3)): 0 n (%); ≥ 10% TRAE: Hypertriglyceridemia ([2]; 40 mg BID (n = 3)): 1 (33.3) n (%); ≥ 10% TRAE: LDL increased ([2]; 40 mg BID (n = 3)): 1 (33.3) n (%); ≥ 10% TRAE: Leukocytopenia ([2]; 40 mg BID (n = 3)): 2 (66.7) n (%); ≥ 10% TRAE: Neutropenia ([2]; 40 mg BID (n = 3)): 0 n (%); ≥ 10% TRAE: Sinus bradycardia ([2]; 40 mg BID (n = 3)): 0 n (%); Patients with any TEAE ([2]; 60 mg BID (n = 4)): 3 (75.0) n (%); Patients with any TEAE, maximum CTCAE Grade 1 ([2]; 60 mg BID (n = 4)): 1 (25.0) n (%); Patients with any TEAE, maximum CTCAE Grade 2 ([2]; 60 mg BID (n = 4)): 2 (50.0) n (%); Patients with any TEAE, maximum CTCAE Grade 3 ([2]; 60 mg BID (n = 4)): 0 n (%); ≥ 10% TRAE: ALT increased ([2]; 60 mg BID (n = 4)): 1 (25.0) n (%); ≥ 10% TRAE: AST increased ([2]; 60 mg BID (n = 4)): 1 (25.0) n (%); ≥ 10% TRAE: Decreased appetite ([2]; 60 mg BID (n = 4)): 0 n (%); ≥ 10% TRAE: Diarrhea ([2]; 60 mg BID (n = 4)): 2 (50.0) n (%); ≥ 10% TRAE: ECG QT prolonged ([2]; 60 mg BID (n = 4)): 2 (50.0) n (%); ≥ 10% TRAE: Fatigue ([2]; 60 mg BID (n = 4)): 1 (25.0) n (%); ≥ 10% TRAE: GGT increased ([2]; 60 mg BID (n = 4)): 1 (25.0) n (%); ≥ 10% TRAE: Hypercholesterolemia ([2]; 60 mg BID (n = 4)): 3 (75.0) n (%); ≥ 10% TRAE: Hypertriglyceridemia ([2]; 60 mg BID (n = 4)): 2 (50.0) n (%); ≥ 10% TRAE: LDL increased ([2]; 60 mg BID (n = 4)): 1 (25.0) n (%); ≥ 10% TRAE: Leukocytopenia ([2]; 60 mg BID (n = 4)): 1 (25.0) n (%); ≥ 10% TRAE: Neutropenia ([2]; 60 mg BID (n = 4)): 1 (25.0) n (%); ≥ 10% TRAE: Sinus bradycardia ([2]; 60 mg BID (n = 4)): 1 (25.0) n (%); Patients with any TEAE ([2]; 80 mg BID (n = 4)): 4 (100.0) n (%); Patients with any TEAE, maximum CTCAE Grade 1 ([2]; 80 mg BID (n = 4)): 3 (75.0) n (%); Patients with any TEAE, maximum CTCAE Grade 2 ([2]; 80 mg BID (n = 4)): 1 (25.0) n (%); Patients with any TEAE, maximum CTCAE Grade 3 ([2]; 80 mg BID (n = 4)): 0 n (%); ≥ 10% TRAE: ALT increased ([2]; 80 mg BID (n = 4)): 0 n (%); ≥ 10% TRAE: AST increased ([2]; 80 mg BID (n = 4)): 0 n (%); ≥ 10% TRAE: Decreased appetite ([2]; 80 mg BID (n = 4)): 1 (25.0) n (%)
